Two compounds from article PMC4586312 (Nanomedicine : nanotechnology, biology, and medicine, 2015) can be followed below.

Assay [1] deals with T1, cathepsin B (Homo sapiens, UniProt P07858). In words: fluorescence protease assay. It counts as biochemical.
Assay [2] deals with T1, cathepsin B. In words: fluorogenic substrate cleavage assay. Type of assay: biochemical.

Structures are written as SMILES.

What is called IC50 is the point on the concentration scale where inhibition reaches its midpoint. High values mean weaker potency, low ones greater potency.

The compound `CC(C)C[C@H](NC(=O)OCc1ccccc1)C(=O)N[C@H](C=O)C[C@@H]1CCNC1=O` [GC-373] had a half-inhibitory concentration (IC50) on cathepsin B [1] of 9.67 nM. This lies in the single-digit nanomolar range.

Take `Cc1cc(=O)oc2cc(NC(=O)[C@H](CCCNC(=N)N)NC(=O)[C@H](CC(C)C)NC(=O)OCc3ccccc3)ccc12` [Z-Leu-Arg-AMC]: at cathepsin B [2], the “fluorogenic substrate cleavage assay” value is “The cleavage at the site between arginine and AMC dye by cathepsin B resulted in the increase of fluorescence intensity”.
